Values quoted from earlier work, collected in US20050070607A1, “N-acetylcysteine compositions and methods for the treatment and prevention of cysteine/glutathione deficiency in diseases and conditions” (priority 2003, published 2005).
Read-outs that look alike come from different tables or passages of the source.

Tests used:
[1] = tested on: cardiac risk patients; conditions: oxygen consumption, cardiac index, ST-depression during brief hyperoxia; 150 mg/kg IV; n 30; 30 min; Spies 1996[11]
[2] = tested on: cochlea
[3] = tested on: Sjogren's syndrome; conditions: ocular soreness, ocular irritability, halitosis, daytime thirst; 200 mg daily; n 26; 6 weeks; Walters 1986[56]
[4] = tested on: colonic crypt epithelium of human volunteers who previously had adenomatous polyps; conditions: Colon cancer; proliferative index; 800 mg NAC daily po; n 64; 12 weeks; Estensen 1999[55]
[5] = tested on: Exercise
[6] = tested on: septic shock patients
[7] = tested on: Chronic blepharitis; conditions: tear film quality (FBUT, mucous fern pattern); 300 mg/day po; n 40; 4 months; Yalcin 2002[57]
[8] = tested on: Alzheimer's Disease; conditions: MMSE, ADL and other psychometric tests; 50 mg/kg/day; n 47; 24 weeks; Adair 2001[60]
[9] = tested on: premature infants with chronic lung disease; conditions: intratracheal NAC 5%; total airway resistance, cyanotic spells; n 22; 24 hours; Bibi 1992[203]
[10] = tested on: Stable angina and nitrate tolerance
[11] = tested on: plaque formation; conditions: 2 weeks, Bowles 1985[61]
[12] = tested on: otitis media with effusion; conditions: instillation into one ear; recurrence, VT re-insertion, time until VT extrusion; 0.05 ml Mucomyst solution at 1, 3 and 7 days; n 75; 39 months; Ovesen 2000[53]
[13] = tested on: subjects with acetaminophen-induced fulminant hepatic failure; conditions: late presentation; survival, cerebral edema, hypotension; IV 150 mg/kg for 15 min; 50 mg/kg for 4 h; 100 mg/kg over 16 h; n 50; 21 days; Keays 1991[2]
[14] = tested on: acute lung injury
[15] = tested on: subjects classified as slow clearers; conditions: .6 g oral daily, 60 days, Todisco 1985[38]
[16] = tested on: patients with unstable angina pectoris
[17] = tested on: Cardiac bypass
[18] = tested on: Sickle Cell Disease/Vaso-occlusive disease; conditions: 2,400 mg daily, 12 months, Pace 2003[18]
[19] = tested on: Malnourished children; conditions: GSH synthesis rate and concentration; 0.5 mmol per kg per day; placebo alanine; n 32; 50 days; Badaloo 2002[54]
[20] = tested on: Hepatic transplant patients; conditions: oxygen delivery and consumption, base deficit; 150 mg/kg for 15 min; 12.5 mg/kg for 4 h; n 50; 5 hours; Bromley 1995[19]
[21] = tested on: patients with high plasma Lp(a); conditions: plasma homocysteine; Lp(a) >0.3 g/l; 4000 mg daily po; n 11; 14 days; Wiklund 1996[277]
[22] = tested on: patients who have already developed fulminant hepatic failure; conditions: observational study, one hundred patients [138]
[23] = tested on: COPD subjects

Question: Which Beneficial effects [1] does the source give for `CC(=O)N[C@@H](CS)C(=O)O` [NAC, N-acetylcysteine] here?
Answer: Beneficial

Question: What about the “Hearing loss and cochlear damage from aminoglycoside antibiotics and cisplatin” value ([2]; animal models [245-247]) of the same molecule?
Answer: greatly reduced

Question: And the “permanent cochlear damage due to acute acoustic overexposure” value ([2]; animal models, systemic administration [246,248])?
Answer: almost completely prevented

Question: What about the Beneficial effects [3] of the same molecule?
Answer: Beneficial

Question: What about the Treatment effect [4] of the same molecule?
Answer: Beneficial

Question: What about the Beneficial effects ([5]; frail geriatric patients, knee extensor strength, plasma TNF, 1800 mg daily, n 44, 6 weeks, Hauer 2003[59]) of the same molecule?
Answer: Beneficial

Question: What about the Beneficial effects ([5]; intense, intermittent exercise, reduced and oxidized GSH, 125 mg/kg/hr for 15 min, then 25 mg/kg/hr, n 8, Medved 2003[58]) of the same molecule?
Answer: Beneficial

Question: And the Beneficial effects ([5]; prolonged submaximal exercise, well trained individuals, performance, 125 mg/kg/hr for 15 min, then 25 mg/kg/20 min, Medved 2004[286])?
Answer: Beneficial

Question: And the Beneficial effects ([6]; Cardiac performance, MAP, cardiac index, left ventricular stroke work index, early administration 150 mg/kg over 15 min, 50 mg/kg over next 4 hrs, 100 mg/kg over next 24 hrs, n 20, 48 hours, Peake 1996[281])?
Answer: Adverse

Question: What about the Beneficial effects ([6]; hepatosplanchnic flow and function, 150 mg/kg over 15 min before 12.5 mg/kg/hr for 90 min, n 60, 2 hours, Rank 2000[44]) of the same molecule?
Answer: Beneficial

Question: What about the Beneficial effects ([6]; respiratory function, ICU stay, IL-8, 150 mg/kg bolus then 50 mg/kg over 4 hr IV, n 22, 24 hours, Spapen 1998[43]) of the same molecule?
Answer: Beneficial

Question: What about the Beneficial effects ([6]; tissue oxygenation, survival of responders, 150 mg/kg for 15 min, then 12.5 mg/hr over 90 min IV, n 58, 2 hrs, Spies 1994[42]) of the same molecule?
Answer: Beneficial

Question: What about the Beneficial effects [7] of the same molecule?
Answer: Beneficial

Question: What about the Beneficial effects [8] of the same molecule?
Answer: Beneficial

Question: And the Beneficial effects [9]?
Answer: Adverse

Question: And the Beneficial effects ([10]; NAC + ISDN infusion, tolerance to antianginal effects, 2 g IV bolus, n 10, 30 hours, Boesgaard 1992[14])?
Answer: Beneficial

Question: And the Beneficial effects ([10]; NAC + isosorbide dinitrate (ISDN), ST segment depression, 2400 mg daily po, n 7, 8 days, Boesgaard 1991[13])?
Answer: Beneficial

Question: What about the Beneficial effects ([10]; NAC + isosorbide-5-mononitrate, total exercise time, 4800 mg po, n 10, 24 hours, Svendsen 1989[12]) of the same molecule?
Answer: Beneficial

Question: And the “reduction on plaque attributable to NAC” value ([11]; p < .001, 10% aqueous solution)?
Answer: 25.56% reduction on plaque attributable to

Question: And the Beneficial effects ([11]; plaque indices, 10% aqueous solution of NAC buffered to pH 6.5, n 28)?
Answer: Beneficial

Question: And the Beneficial effects [12]?
Answer: Beneficial

Question: And the Treatment effect [13]?
Answer: Beneficial

Question: What about the Beneficial effects ([14]; RBC GSH, days of acute lung injury, cardiac index, NAC 70 mg/kg q 8 hr IV, OTZ 63 mg/kg q 8 hr IV, n 48, 10 days, Bernard 1997[222]) of the same molecule?
Answer: Beneficial

Question: What about the Beneficial effects ([14]; elastase activity, pretreatment 72 mg/kg bolus, 72 mg/kg over 12 hours IV, n 18, 12 hours, De Backer 1996[214]) of the same molecule?
Answer: Beneficial

Question: What about the Beneficial effects ([14]; mild-to-moderate ALI, systemic oxygenation, need for ventilatory support, 40 mg/kg/day IV, n 61, 3 days, Suter 1994[211]) of the same molecule?
Answer: Beneficial

Question: What about the Beneficial effects ([15]; n 161) of the same molecule?
Answer: Beneficial

Question: And the “improvement in mucociliary clearance” value ([15]; slow clearers)?
Answer: a 35% improvement in mucusalary

Question: And the Beneficial effects ([16]; NAC + nitroglycerin, incidence of acute myocardial infarction, 5 g IV, n 46, 6 hours, Horowitz 1988[175,176])?
Answer: Beneficial

Question: And the Beneficial effects ([16]; nitroglycerin + NAC with conventional therapy, outcome events, 600 mg po, n 200, 4 months, Ardissino 1997[177])?
Answer: Beneficial

Question: And the “apoptosis induction by cardioplegic arrest in left ventricular cardiac myocytes” value ([17]; 100 mg/kg followed by infusion 20 mg/kg, n 36, Fischer 2004[270])?
Answer: can effectively ne prevented by NAC.

Question: And the Beneficial effects ([17]; oxidative burst response of peripheral neutrophils, 100 mg/kg bolus then 20 mg/kg continuous IV, n 12, 24 hours, Andersen 1995[16])?
Answer: Beneficial

Question: And the vaso-occlusive episodes ([18]; decreased from 0.03)?
Answer: occlusive episodes (0.03 to 0.006 episodes episodes per person-days

Question: What about the Beneficial effects ([18]; dense cell formation, glutathione levels, vaso-occlusive episodes, n 21) of the same molecule?
Answer: Beneficial

Question: What about the Treatment effect [19] of the same molecule?
Answer: Beneficial

Question: And the Treatment effect [20]?
Answer: Beneficial

Question: And the Beneficial effects [21]?
Answer: Beneficial

Question: What about the survival [22] of the same molecule?
Answer: significantly increased survival

Question: What about the Beneficial effects ([23]; hydrogen peroxide formation in the airways, oral 600 mg fizzy, n 44, 12 months, Kasielski 2001[210]) of the same molecule?
Answer: Beneficial

Question: And the Beneficial effects ([23]; mucus viscosity, effective cough, clinical symptoms, 600 mg, n 60, 10 days, Verstraeten 1979[39])?
Answer: Beneficial

Question: And the Beneficial effects ([23]; quadriceps endurance, exercise induced oxidative stress, 1800 mg for 4 days and 600 mg the day of the test, n 9, Koechlin 2004[278])?
Answer: Beneficial
